From US9765294B2 (priority 2013, dated 2017)
Where two headings read alike, the source gives them in different places.

Legend:
[1] = tested on: Bordetella pertussis; assay type: cell-based
[2] = tested on: B. pertussis; test: Growth in minimal media containing only one amino acid, shake-flasks; assay type: cell-based, Bordetella pertussis; conditions: L-cysteine 125 mM as single amino acid, no thiosulfate added
Procedure: Assays were performed in order to determine whether growth of B. pertussis is possible in minimal media containing a single amino acid as the sole source of carbon and nitrogen. A shake-flask containing 7.5 ml fresh medium (B-CDM containing 0.604 g/L niacin) was inoculated with 10^9 B. pertussis CFUs and incubated at 35° C. (+/−1° C.) and 150 rpm for 24 h (+/−5 h). Cells were harvested by centrifugation, washed twice with NaCl 0.9% (w/v), and resuspended in fresh medium (see composition in Table 12) at a theoretical OD650 nm of 0.5, as calculated from the OD650 nm of the culture before harvest. 1 ml of this cell suspension was used to inoculate shake-flasks containing 30 ml of the medium in Table 12, supplemented with a single amino acid (L-cysteine 125 mM, L-proline 125 mM, L-glutamate 125 mM, L-glutamine 125 mM, L-aspartate 30 mM, L-asparagine 125 mM, L-serine 125 mM, or L-alanine 125 mM) as a source of C and N, and thiosulfate 0.25 mM as a source of S (except for L-Cys supplementation, where no thiosulfate was added). The same medium with ammonium chloride (25 mM) and thiosulfate (0.25 mM), but no amino acid, was used as a negative control. The shake flasks were then incubated for approximately 10 days at 35° C. under constant shaking (150 rpm). Growth was monitored as OD650 nm.

[3] = tested on: B. pertussis; assay type: cell-based, Bordetella pertussis; conditions: for Growth: 53 h; for Biomass yield after 53 h: sole sulfur source, 35° C.; for Support of growth as the sole source of sulfur: medium containing no other S source
[4] = tested on: B. pertussis; assay type: cell-based, Bordetella pertussis
[5] = buffer 2.5 g/L, relative to Tris control
[6] = buffer 5.0 g/L, relative to Tris control
[7] = buffer 10.0 g/L, relative to Tris control
[8] = buffer 20.0 g/L, relative to Tris control
[9] = buffer 6.1 g/L, control conditions

[Cl][Cu][Cl] [CuCl2]
Biomass yield [1]: significant increase

N[C@@H](CS)C(=O)O [L-cysteine]
Need for an additional source of sulfur [2]: no additional source of sulfur was required | Growth ([3]; 27 mM in medium): + | Biomass yield after 53 h ([3]; 27 mM in medium): 0.512 OD650nm

O=S(=O)(O)CCCN1CCOCC1 [MOPS, 3-(N-morpholino)propanesulfonic acid]
Support of growth as buffer in B-CDM [4]: able to support growth | Relative biomass yield after 24 h [4, 5]: 114% | Relative biomass yield after 48 h [4, 5]: 91% | Relative biomass yield after 24 h [4, 6]: 85% | Relative biomass yield after 48 h [4, 6]: 88% | Relative biomass yield after 24 h [4, 7]: 111% | Relative biomass yield after 48 h [4, 7]: 84% | Relative biomass yield after 24 h [4, 8]: 81% | Relative biomass yield after 48 h [4, 8]: 76%

O=S(=O)([O-])[O-].[Na+].[Na+] [disodium sulfate]
Growth ([3]; 12 mM in medium): − | Biomass yield after 53 h ([3]; 12 mM in medium): 0.015 OD650nm | Support of growth as the sole source of sulfur [3]: not able to support growth

O=S([O-])[O-].[Na+].[Na+] [disodium sulfite]
Growth ([3]; 1 mM in medium): − | Biomass yield after 53 h ([3]; 1 mM in medium): 0.011 OD650nm | Biomass yield after 53 h ([3]; 12 mM in medium): 0.007 OD650nm | Support of growth as the sole source of sulfur [3]: not able to support growth

O=S(O)(O)=S [disodium thiosulfate]
Growth ([3]; 1 mM in medium): + | Biomass yield after 53 h ([3]; 1 mM in medium): 0.227 OD650nm | Growth ([3]; 12 mM in medium): + | Biomass yield after 53 h ([3]; 12 mM in medium): 0.472 OD650nm | Support of growth as the sole source of sulfur [3]: growth was observed

O=P(O)(O)OC(CO)CO [β-glycerophosphate]
Support of growth as buffer in B-CDM [4]: able to support growth | Relative biomass yield after 24 h [4, 5]: 88% | Relative biomass yield after 48 h [4, 5]: 79% | Relative biomass yield after 24 h [4, 6]: 89% | Relative biomass yield after 48 h [4, 6]: 67% | Relative biomass yield after 24 h [4, 7]: 68% | Relative biomass yield after 48 h [4, 7]: 59% | Relative biomass yield after 24 h [4, 8]: 46% | Relative biomass yield after 48 h [4, 8]: 45%

tris(hydroxymethyl)aminomethane
Relative biomass yield after 24 h [4, 9]: 100% | Relative biomass yield after 48 h [4, 9]: 100%
